According to patent publication US20240239818A1, “COMPOUNDS AND COMPOSITIONS COMPRISING FLUOROPHORES FOR USE IN VISUALIZATION AND PURIFICATION OR MANIPULATION” (priority 2022, published 2024):
Like-named read-outs stand apart in the source and are kept apart here.

Experiments:
[1] = target: T1, msGFP-HaloTag® fusion localized to the mitochondrial outer membrane (Rhodococcus rhodochrous, UniProt P0A3G2, A155T/A167V/A172T/A224E/C128F/C176G/D78G/E160K/E257K/H272N/K175M/K195N/L47V/L88M/N227D/S58T/T264A/Y273L/Y87F); experiment: HEK293T labeling and fluorescence microscopy; assay type: cell-based; settings: live HEK293T cells, nanomolar concentration (100 nM, 1 h)
T1 construct: expressed in transfected cells; host or cells: HEK293T, calcium phosphate transfection
Source text: Plasmid construction. HaloTag®, amplified from the pHTC HaloTag® CMV-neo Vector (Promega; G7711) and monomeric-superfolder green fluorescent protein (msGFP; lab stock), was fused to the mitochondrial targeting signal from OMP25,^28 interspacing flexible GS(GSS)4 linkers between each domain by PCR Splicing by Overlap Extension (SOE). This construct was subcloned into hSynapsin promoter bearing a copy of FUGW.^29 FUGW was a gift from David Baltimore (Addgene plasmid #14883; RRID: Addgene_14883).^48 This construct was designated as pF(UG) hSyn HaloTag®-TEV-4×GS-msGFP-mito.
HEK293T cell culture. HEK293T cells (ATCC) were passaged before 80% confluency by trypsinization (Corning; 25-053-CI) and trituration. The cell suspension was then plated on glass coverslips (Warner instruments; 64-0734, CS-18R17) coated with poly-D-lysine (Thermofisher; ICN10269491) and cultured in Dulbecco's Modified Eagle Medium (DMEM; ThermoFisher; 11965-118) supplemented with 10% v/v fetal bovine serum (FBS, Atlanta Biological) and penicillin/streptomycin (pen/strep; ThermoFisher; MT-30-001-CI) at 37° C. in a humidified 5% v/v CO2 environment following ATCC guidelines. These HEK293T cells were tested for mycoplasma contamination using the Universal Mycoplasma Detection Kit (ATCC; 30-1012K) and validated using Short Tandem Repeat profiling by ATCC (ATCC; 135-XV) within the previous year.
HEK293T labeling and fluorescence microscopy. […] For pulse-chase experiments, HEK293T cells were incubated with biotin-HaloTag® ligand (6; #G8281, Promega) at either 100 nM or 10 μM for 1 hour at 37° C. and chased with 100 nM of JANELIA FLUOR® (JF)549-HaloTag® ligand (2HTL). […] For imaging, the coverslips containing HEK293T cells were fixed with 4% paraformaldehyde in PBS at 37° C. for 10 min, washed with PBS (3×), and mounted on glass slides with ProLong Glass Antifade Mountant with NucBlue™ Stain (ThermoFisher; P36981). These cells were imaged using a Zeiss LSM 880 with Airyscan and a plan-apochromatic 63×/1.40 oil objective in Fast Airyscan mode. The same image acquisition settings were used for each trial and condition. Images were then processed with automatic Airyscan deconvolution settings.

[2] = assay type: physicochemical
Method: Determination of logD7.4. The log of distribution coefficients at pH 7.4 was determined in octanol-phosphate-buffered saline (PBS) using the miniaturized shake flask setup described previously.^36, 47 Briefly, 150 mL each of octanol and PBS pH 7.4 were stirred vigorously for 12-16 h. The layers were allowed to stand for at least 24 h for phase separation. The separated layers were collected and served as PBS saturated with octanol (PBS*) and octanol saturated with PBS (octanol*). Stock solutions (1 mM or 5 mM) of ligands were prepared in DMSO and diluted in PBS* to obtain 1 μM or 10 μM (3-5 mL) of the standard (std). This standard was used to prepare appropriate dilutions using octanol*, in triplicate, in 2-mL glass vials. The leftover standard was used to determine the standard concentration (Cstd). The vials were vortexed for 1 min and shaken horizontally at 700 rpm for 2 h. The vials were then shaken upright at 150 rpm for 2 h to allow the phases to separate. The octanol* layer was pipetted out, and the PBS* layer was used for further analyses. The concentrations of ligands in the standard and PBS* (CPBS*) were determined via fluorescence measurements of 200 μL of PBS* or std in 96-well plates on the Cytation 5 Multimode Plate Reader (BioTek). For Si-rhodamine containing ligands, 2-20 μL of trifluoroacetic acid was added to each well of the 96-well plate prior to the fluorescence measurements. Reported values are averages of at least two measurements. The logD7.4 was obtained as described previously using equation 2:
[formula] • where Cstd is the standard concentration in PBS, CPBS* is the concentration in PBS after partitioning, r is the dilution factor of the standard solution, VPBS* is the volume of PBS used in the partitioning, and Voctanol* is the volume of octanol used in the partitioning.

[3] = Determination of lactone-zwitterion equilibrium constant (KL-Z); assay type: physicochemical; settings: 1:1 (v/v) dioxane:water
Method: Determination of KL-Z. The lactone-zwitterion equilibrium constant (KL-Z) was calculated as described previously^13, 23, 32, 45 using equation 1: […]
where εdw is the extinction coefficient of the dyes in a 1:1 (v/v) dioxane:water solvent mixture containing 0.01% (v/v) triethylamine; this dioxane water mixture was chosen to give a large range of KL-Z values,^23 and the triethylamine additive ensures the rhodamines are in the net neutral form. The εmax is the maximal extinction coefficient, measured in 0.1% (v/v) trifluoroacetic acid in 2,2,2-trifluoroethanol (TFE).

[4] = 1:1 (v/v) dioxane-water; parent JF dyes; cited from earlier work
[5] = 1-Photon spectroscopy and quantum yield of HaloTag® ligands; assay type: physicochemical; settings: free ligand, 10 mM HEPES pH 7.3
Method: 1-Photon spectroscopy of HaloTag® ligands and HaloTag® conjugates. […] All measurements were taken at ambient temperature (22 ±2° C.). Absorption spectra were recorded on a Cary Model 100 spectrometer (Agilent) using 1-cm path length 1.0-mL quartz microcuvettes from Starna Cells. Fluorescence spectra were recorded on a Cary Eclipse fluorometer (Varian) using 1-cm path length 3.5-mL quartz cuvettes (Starna Cells). As before,^13, 23, 32, 45 HaloTag® protein was used as a 100 μM solution in 1×TBS. HaloTag® ligands 12-15 (5 μM) were dissolved in 10 mM HEPES, pH 7.3, containing 0.1 mg/mL CHAPS. An aliquot of HaloTag® protein (1.5 equiv) was added, and the resulting mixture was incubated until a consistent absorbance signal was observed (60-120 min). To measure the fold-increase of absorbance upon HaloTag® binding, a “no HaloTag®” control experiment was performed where an equivalent volume of TBS blank was added in place of the protein. Reported values for extinction coefficient (ε) are averages of at least two measurements.
Quantum yield determination. All reported absolute fluorescence quantum yield values (Φf) were measured in the laboratory under identical conditions using a Quantaurus-QY spectrometer (model C11374, Hamamatsu). This instrument uses an integrating sphere to determine photons absorbed and emitted by a sample. Measurements were performed using dilute samples (absorbance<0.1), and self-absorption corrections were performed using the instrument software.^46 Reported values are averages of at least two measurements.

[6] = test system: HaloTag®-histone H2B fusion protein; assay type: cell-based; settings: 200 nM, live U2OS cells expressing HaloTag®-H2B, 0-4 h
Method: Dye loading kinetics. Live U2OS.H2B.HaloTag® stable cells were labeled over a time course of 0-4 h with 200 nM of biotin-JF549-HaloTag® ligand (12), biotin-JF608-HaloTag® ligand (13), biotin-JF646-HaloTag® ligand (14), or biotin-JF635-HaloTag® ligand (15) at 37° C. Cells were then washed 3× with dye-free media, fixed with 4% paraformaldehyde in 0.1 M phosphate buffer, pH 7.4 for 15 min at 37° C. Confocal imaging was performed on a Leica SP8 with an HC PL APO CS2 20×/0.75 immersion objective using the tunable white light laser (WLL) to excite dyes at their λabs in constant power mode. Fluorescence was quantified as the average integrated density of background corrected nuclear signals from confocal image stack projections analyzed in FIJI; n=100 nuclear signals per compound.

T1 sequence (P0A3G2 other isoform, or with tags, fused parts or gaps with the stated changes): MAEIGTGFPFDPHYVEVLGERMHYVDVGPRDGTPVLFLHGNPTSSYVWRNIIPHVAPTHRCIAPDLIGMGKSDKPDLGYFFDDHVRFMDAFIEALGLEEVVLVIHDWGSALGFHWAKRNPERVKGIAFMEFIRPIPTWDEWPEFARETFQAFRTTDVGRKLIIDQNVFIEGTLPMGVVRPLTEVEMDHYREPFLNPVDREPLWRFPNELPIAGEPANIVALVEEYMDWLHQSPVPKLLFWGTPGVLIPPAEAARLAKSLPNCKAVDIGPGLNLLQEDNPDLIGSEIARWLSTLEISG

C[Si]1(C)c2cc(N3CCC3)ccc2C2(OC(=O)c3ccc(C(=O)NCCOCCOCCCCCCCl)cc32)c2ccc(N3CCC3)cc21 [4HTL, JF646-HaloTag® ligand, reference compound]
labeling of mitochondria-localized HaloTag®-msGFP fusion [1]: labeled the mitochondria in live cells | logD7.4 ([2]; octanol-PBS pH 7.4): 3.59 | KL-Z [3]: 0.010

C[Si]1(C)c2cc(N3CCC3)ccc2C2(OC(=O)c3ccccc32)c2ccc(N3CCC3)cc21 [compound 4, JF646]
logD7.4 ([2]; octanol-PBS pH 7.4): 3.98 | KL-Z [4]: 0.0014

O=C(NCCOCCOCCCCCCCl)c1ccc2c(c1)C1(OC2=O)c2ccc(N3CCC3)cc2Oc2cc(N3CCC3)ccc21 [2HTL, JF549-HaloTag® ligand, reference compound]
labeling of mitochondria-localized HaloTag®-msGFP fusion [1]: labeled the mitochondria-localized HaloTag®-msGFP fusions | logD7.4 ([2]; pH 7.4): 0.82 | KL-Z [3]: 5.2

O=C1OC2(c3ccc(N4CCC4)cc3Oc3cc(N4CCC4)ccc32)c2ccccc21 [compound 2, Janelia Fluor 549]
logD7.4 ([2]; pH 7.4): 0.98 | KL-Z [4]: 3.5

C[Si]1(C)c2cc(N3CC(F)C3)ccc2C2(OC(=O)c3ccccc32)c2ccc(N3CC(F)C3)cc21 [compound 5, JF635]
logD7.4 ([2]; octanol-PBS pH 7.4): 4.1 | KL-Z [4]: 0.0001

CC1(C)c2cc(N3CCC3)ccc2C2(OC(=O)c3ccccc32)c2ccc(N3CCC3)cc21 [compound 3, JF608]
logD7.4 ([2]; octanol-PBS pH 7.4): 3.78 | KL-Z [4]: 0.091

CC1(C)C2=CC(=[N+]3CC(C(=O)NCCOCCOCCNC(=O)CCCC[C@@H]4SC[C@@H]5NC(=O)N[C@@H]54)C3)C=CC2=C(c2cc(C(=O)NCCOCCOCCCCCCCl)ccc2C(=O)[O-])c2ccc(N3CCC3)cc21 (some centres unmarked) [compound 13, Biotin-JF608-HaloTag® ligand]
extinction coefficient (ε) [5]: 92,300 M^−1cm^−1 | fluorescence quantum yield (Φf) [5]: 0.65 | λabs [5]: 610 nm | λem [5]: 634 nm | time to reach saturation of labeling [6]: 4 h | logD7.4 ([2]; pH 7.4): 2.63 | KL-Z [3]: 0.17

CC1(C)c2cc(N3CCC3)ccc2C2(OC(=O)c3ccc(C(=O)NCCOCCOCCCCCCCl)cc32)c2ccc(N3CCC3)cc21 [3HTL, reference compound]
logD7.4 ([2]; octanol-PBS pH 7.4): 3.55 | KL-Z [3]: 0.33
